# Target: T1, F508del (Homo sapiens, UniProt P13569, DEL508-508)
# T1 construct: expressed in transfected cells
# Test: Protocol 2: FRET membrane potential optical assay (VIPR), identification of correction compounds
# Assay type: cell-based
# Settings: Table 3; compounds of Table 1 as modulators of CFTR activity; protocol not stated
# Method in brief: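 Correction of the F508del trafficking defect is scored as forskolin (10 μM)/genistein (20 μM)-stimulated Cl^− efflux in NIH3T3 mouse fibroblasts after a 16 hr, 37° C. compound exposure. Depolarization was followed optically using voltage-sensing FRET dyes.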
# T1 sequence (P13569 with tags, fused parts or gaps DEL508-508): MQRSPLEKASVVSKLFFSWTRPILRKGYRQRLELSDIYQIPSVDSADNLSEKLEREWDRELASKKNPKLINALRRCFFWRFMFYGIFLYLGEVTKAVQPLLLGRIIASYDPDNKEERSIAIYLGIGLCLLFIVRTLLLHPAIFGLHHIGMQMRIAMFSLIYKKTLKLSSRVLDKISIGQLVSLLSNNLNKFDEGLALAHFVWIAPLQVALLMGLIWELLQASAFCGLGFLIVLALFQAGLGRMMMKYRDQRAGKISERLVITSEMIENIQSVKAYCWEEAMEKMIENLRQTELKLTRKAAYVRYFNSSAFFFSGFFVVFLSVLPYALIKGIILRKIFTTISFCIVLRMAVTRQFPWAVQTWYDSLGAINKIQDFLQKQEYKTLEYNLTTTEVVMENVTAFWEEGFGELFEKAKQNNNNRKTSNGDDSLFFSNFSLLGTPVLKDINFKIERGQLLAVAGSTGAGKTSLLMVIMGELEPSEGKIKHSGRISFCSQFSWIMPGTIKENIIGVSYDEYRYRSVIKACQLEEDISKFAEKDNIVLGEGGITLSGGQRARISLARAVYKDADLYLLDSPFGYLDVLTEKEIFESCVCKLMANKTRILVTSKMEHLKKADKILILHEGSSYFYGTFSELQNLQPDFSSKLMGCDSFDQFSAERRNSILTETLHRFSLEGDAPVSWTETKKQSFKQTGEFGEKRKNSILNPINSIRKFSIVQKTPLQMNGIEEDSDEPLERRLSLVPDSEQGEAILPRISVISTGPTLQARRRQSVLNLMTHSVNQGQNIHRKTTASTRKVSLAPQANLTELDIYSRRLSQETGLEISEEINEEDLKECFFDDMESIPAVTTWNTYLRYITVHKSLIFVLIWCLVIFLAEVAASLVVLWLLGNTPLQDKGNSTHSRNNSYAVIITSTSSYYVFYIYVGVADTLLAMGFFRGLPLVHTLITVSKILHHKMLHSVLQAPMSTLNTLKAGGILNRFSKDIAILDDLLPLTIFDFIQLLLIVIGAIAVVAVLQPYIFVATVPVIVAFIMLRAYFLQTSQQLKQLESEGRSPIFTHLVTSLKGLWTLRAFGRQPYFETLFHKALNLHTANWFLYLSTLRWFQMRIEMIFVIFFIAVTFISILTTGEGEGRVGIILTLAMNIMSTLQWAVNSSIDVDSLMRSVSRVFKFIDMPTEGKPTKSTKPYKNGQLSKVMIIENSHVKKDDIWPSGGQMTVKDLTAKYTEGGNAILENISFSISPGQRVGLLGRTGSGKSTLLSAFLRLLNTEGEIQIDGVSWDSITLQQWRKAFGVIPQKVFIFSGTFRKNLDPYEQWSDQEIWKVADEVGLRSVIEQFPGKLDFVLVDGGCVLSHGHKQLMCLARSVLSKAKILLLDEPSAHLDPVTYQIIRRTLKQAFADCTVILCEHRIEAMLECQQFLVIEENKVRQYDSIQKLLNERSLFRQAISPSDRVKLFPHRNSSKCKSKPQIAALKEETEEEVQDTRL
row,SMILES,EC30
1,"CC(C)COc1cc(F)cc(-c2ccc(C(=O)NS(=O)(=O)c3cccc(N)n3)c(OC3CCC(C)C3)n2)c1 (centres unmarked) [Compound 452, N-[(6-amino-2-pyridyl)sulfonyl]-6-(3-fluoro-5-isobutoxy-phenyl)-2-(3-methylcyclopentoxy)pyridine-3-carboxamide]",+++ (“+++” means <3 uM)
2,"CC(C)COc1cc(F)cc(-c2ccc(C(=O)NS(=O)(=O)c3cccc(N)n3)c(N3CC=CC3)n2)c1 [Compound 453, N-[(6-amino-2-pyridyl)sulfonyl]-2-(2,5-dihydropyrrol-1-yl)-6-(3-fluoro-5-isobutoxy-phenyl)pyridine-3-carboxamide]",+++ (“+++” means <3 uM)
3,"Cc1cc(C)c(Oc2nc(-c3cc(C(F)(F)F)nn3C)ccc2C(=O)NS(=O)(=O)c2cccc(N)n2)c(C)c1 [Compound 457, N-[(6-amino-2-pyridyl)sulfonyl]-6-[2-methyl-5-(trifluoromethyl)pyrazol-3-yl]-2-(2,4,6-trimethylphenoxy)pyridine-3-carboxamide]",+++ (“+++” means <3 uM)
4,"CC(C)COc1cc(F)cc(-c2ccc(C(=O)NS(=O)(=O)c3cccc(N)n3)c(N3[C@@H](C)CC[C@@H]3C)n2)c1 [Compound 458, N-[(6-amino-2-pyridyl)sulfonyl]-2-[(2S,5S)-2,5-dimethylpyrrolidin-1-yl]-6-(3-fluoro-5-isobutoxy-phenyl)pyridine-3-carboxamide]",+++ (“+++” means <3 uM)
5,"Cc1cc(C)c(Oc2nc(-c3cc(F)cc(OCC(C)C)c3)ccc2C(=O)NS(=O)(=O)c2cccc(C(=O)O)n2)c(C)c1 [Compound 461, 6-[[6-(3-fluoro-5-isobutoxy-phenyl)-2-(2,4,6-trimethylphenoxy)pyridine-3-carbonyl]sulfamoyl]pyridine-2-carboxylic acid]",++ (“++” means between 3 uM and 10 uM)
6,"Cc1cc(C)c(CN2c3ccccc3C[C@@H]2C(=O)NS(=O)(=O)c2cccc(N)n2)c(C)c1 [Compound 462, (2R)—N-[(6-amino-2-pyridyl)sulfonyl]-1-[(2,4,6-trimethylphenyl)methyl]indoline-2-carboxamide]",+++ (“+++” means <3 uM)
7,"CC(C)COc1cc(F)cc(-c2ccc(C(=O)NS(=O)(=O)C3CCNC3=O)c(N3CC(C)CC3(C)C)n2)c1 (centres unmarked) [Compound 466, 6-(3-fluoro-5-isobutoxy-phenyl)-N-(2-oxopyrrolidin-3-yl)sulfonyl-2-(2,2,4-trimethylpyrrolidin-1-yl)pyridine-3-carboxamide]",+++ (“+++” means <3 uM)
8,"Cc1cc(C)c(CN2C[C@H](c3ccccc3)C[C@@H]2C(=O)NS(=O)(=O)c2cccc(N)n2)c(C)c1 [Compound 467, (2R,4S)—N-[(6-amino-2-pyridyl)sulfonyl]-4-phenyl-1-[(2,4,6-trimethylphenyl)methyl]pyrrolidine-2-carboxamide]",++ (“++” means between 3 uM and 10 uM)
9,"Cc1cc(C)c(Oc2nc(C(C)(C)C)ccc2C(=O)NS(=O)(=O)c2cccc(N(C)C)n2)c(C)c1 [Compound 468, 6-tert-butyl-N-[[6-(dimethylamino)-2-pyridyl]sulfonyl]-2-(2,4,6-trimethylphenoxy)pyridine-3-carboxamide]",+++ (“+++” means <3 uM)
10,"CC(C)COc1ccc(-c2ccc(C(=O)NS(=O)(=O)c3cccc(N)n3)c(N3CC(C)CC3(C)C)n2)cn1 (centres unmarked) [Compound 471, N-[(6-amino-2-pyridyl)sulfonyl]-6-(6-isobutoxy-3-pyridyl)-2-(2,2,4-trimethylpyrrolidin-1-yl)pyridine-3-carboxamide]",+++ (“+++” means <3 uM)
11,"Cc1cc(C)c(Cn2nc(C(C)(C)C)cc2C(=O)NS(=O)(=O)c2cccc(Cl)c2)c(C)c1 [Compound 472, 5-tert-butyl-N-(3-chlorophenyl)sulfonyl-2-[(2,4,6-trimethylphenyl)methyl]pyrazole-3-carboxamide]",+ (“+” means greater than 10 uM)
12,"CC(C)COc1cc(F)cc(-c2ccc(C(=O)NS(=O)(=O)c3cccc(N)n3)c(N3CCC(Cc4ccccc4)C3)n2)c1 (centres unmarked) [Compound 473, N-[(6-amino-2-pyridyl)sulfonyl]-2-(3-benzylpyrrolidin-1-yl)-6-(3-fluoro-5-isobutoxy-phenyl)pyridine-3-carboxamide]",+++ (“+++” means <3 uM)
13,"COc1ccc2c(c1)C(C)(C(=O)NS(=O)(=O)c1cccc(N)n1)N(Cc1c(C)cc(C)cc1C)C2 (centres unmarked) [Compound 474, N-[(6-amino-2-pyridyl)sulfonyl]-6-methoxy-1-methyl-2-[(2,4,6-trimethylphenyl)methyl]isoindoline-1-carboxamide]",+++ (“+++” means <3 uM)
14,"COc1c(C)cccc1-c1ccc(C(=O)NS(=O)(=O)c2cccc(N)n2)c(Oc2c(C)cc(C)cc2C)n1 [Compound 477, N-[(6-amino-2-pyridyl)sulfonyl]-6-(2-methoxy-3-methyl-phenyl)-2-(2,4,6-trimethylphenoxy)pyridine-3-carboxamide]",+++ (“+++” means <3 uM)
15,"CC(C)COc1cc(F)cc(-c2ccc(C(=O)NS(=O)(=O)c3cccc(N)n3)c(N3CCCC3C)n2)c1 (centres unmarked) [Compound 479, N-[(6-amino-2-pyridyl)sulfonyl]-6-(3-fluoro-5-isobutoxy-phenyl)-2-(2-methylpyrrolidin-1-yl)pyridine-3-carboxamide]",+++ (“+++” means <3 uM)

# Second part, the compound after the results:
row,EC30,SMILES
1,++ (“++” means between 3 uM and 10 uM),"Cc1cc(C)c(Oc2nc(-c3cccc4nn(C)cc34)ccc2C(=O)NS(=O)(=O)c2cccc(N)n2)c(C)c1 [Compound 451, N-[(6-amino-2-pyridyl)sulfonyl]-6-(2-methylindazol-4-yl)-2-(2,4,6-trimethylphenoxy)pyridine-3-carboxamide]"
2,+++ (“+++” means <3 uM),"C[C@@H]1CC[C@H](C)N1c1nc(-c2ccc(OCC3(C)CC3)nc2)ccc1C(=O)NS(=O)(=O)c1cccc(N)n1 [Compound 454, N-[(6-amino-2-pyridyl)sulfonyl]-2-[(2S,5R)-2,5-dimethylpyrrolidin-1-yl]-6-[6-[(1-methylcyclopropyl)methoxy]-3-pyridyl]pyridine-3-carboxamide]"
3,+++ (“+++” means <3 uM),"CCOc1ccc(-c2nc(N3CC(C)CC3(C)C)c(C(=O)NS(=O)(=O)c3cccc(N)n3)cc2C)cc1 (centres unmarked) [Compound 455, N-[(6-amino-2-pyridyl)sulfonyl]-6-(4-ethoxyphenyl)-5-methyl-2-(2,2,4-trimethylpyrrolidin-1-yl)pyridine-3-carboxamide]"
4,+++ (“+++” means <3 uM),"Cc1ccc(-c2ccc(C(=O)NS(=O)(=O)c3cccc(N)n3)c(N3CC(C)CC3(C)C)n2)cc1 (centres unmarked) [Compound 456, N-[(6-amino-2-pyridyl)sulfonyl]-6-(p-tolyl)-2-(2,2,4-trimethylpyrrolidin-1-yl)pyridine-3-carboxamide]"
5,+++ (“+++” means <3 uM),"C[C@@H]1CC[C@H](C)N1c1nc(-c2ccc(Cl)cc2)ccc1C(=O)NS(=O)(=O)c1cccc(N)n1 [Compound 459, N-[(6-amino-2-pyridyl)sulfonyl]-6-(4-chlorophenyl)-2-[(2S,5R)-2,5-dimethylpyrrolidin-1-yl]pyridine-3-carboxamide]"
6,++ (“++” means between 3 uM and 10 uM),"Cc1ccnc(C)c1Oc1nc(C(C)(C)C)ccc1C(=O)NS(=O)(=O)c1cccc(N)n1 [Compound 460, N-[(6-amino-2-pyridyl)sulfonyl]-6-tert-butyl-2-[(2,4-dimethyl-3-pyridyl)oxy]pyridine-3-carboxamide]"
7,++ (“++” means between 3 uM and 10 uM),"Cc1cc(C)c(Oc2nc(-c3ccccc3F)ccc2C(=O)NS(=O)(=O)c2cccc(N)n2)c(C)c1 [Compound 463, N-[(6-amino-2-pyridyl)sulfonyl]-6-(2-fluorophenyl)-2-(2,4,6-trimethylphenoxy)pyridine-3-carboxamide]"
8,+++ (“+++” means <3 uM),"CC(C)Oc1ccc(-c2ccc(C(=O)NS(=O)(=O)c3cccc(N)n3)c(N3CCC(C)C3(C)C)n2)cn1 (centres unmarked) [Compound 464, N-[(6-amino-2-pyridyl)sulfonyl]-6-(6-isopropoxy-3-pyridyl)-2-(2,2,3-trimethylpyrrolidin-1-yl)pyridine-3-carboxamide]"
9,++ (“++” means between 3 uM and 10 uM),"Cc1cc(C)c(Oc2nc(-c3cccc(CN4CCOCC4)c3)ccc2C(=O)NS(=O)(=O)c2cccc(N)n2)c(C)c1 [Compound 465, N-[(6-amino-2-pyridyl)sulfonyl]-6-[3-(morpholinomethyl)phenyl]-2-(2,4,6-trimethylphenoxy)pyridine-3-carboxamide]"
10,++ (“++” means between 3 uM and 10 uM),"CCCn1cc(-c2ccc(C(=O)NS(=O)(=O)c3cccc(N)n3)c(Oc3c(C)cc(C)cc3C)n2)cn1 [Compound 469, N-[(6-amino-2-pyridyl)sulfonyl]-6-(1-propylpyrazol-4-yl)-2-(2,4,6-trimethylphenoxy)pyridine-3-carboxamide]"
11,+++ (“+++” means <3 uM),"COc1ccc(C)c(-c2ccc(C(=O)NS(=O)(=O)c3cccc(N)n3)c(N3CC(C)CC3(C)C)n2)c1 (centres unmarked) [Compound 470, N-[(6-amino-2-pyridyl)sulfonyl]-6-(5-methoxy-2-methyl-phenyl)-2-(2,2,4-trimethylpyrrolidin-1-yl)pyridine-3-carboxamide]"
12,+++ (“+++” means <3 uM),"Cc1cc(C)c(Oc2nc(-c3cnc(N4CCCCC4)nc3)ccc2C(=O)NS(=O)(=O)c2cccc(N)n2)c(C)c1 [Compound 475, N-[(6-amino-2-pyridyl)sulfonyl]-6-[12-(1-piperidyl)pyrimidin-5-yl]-2-(2,4,6-trimethylphenoxy)pyridine-3-carboxamide]"
13,++ (“++” means between 3 uM and 10 uM),"CC(C)Oc1ccc(-c2ccc(C(=O)NS(=O)(=O)c3cccc(N)n3)c(N3C[C@@H]4CC[C@H]3C4)n2)cn1 [Compound 476, N-[(6-amino-2-pyridyl)sulfonyl]-2-[(1R,4S)-3-azabicyclo[2.2.1]heptan-3-yl]-6-(6-isopropoxy-3-pyridyl)pyridine-3-carboxamide]"
14,++ (“++” means between 3 uM and 10 uM),"CC(C)(C)c1ccc(C(=O)NS(=O)(=O)c2cccc(N)n2)c(C2=CCCCC2)n1 [Compound 478, N-[(6-amino-2-pyridyl)sulfonyl]-6-tert-butyl-2-(cyclohexen-1-yl)pyridine-3-carboxamide]"
